We go through 16 molecules from PubChem BioAssay (NCI).

Common to all, as to test: inhibition of tumour cell growth, NCI panel, 48 h
For assay [1], the system named is MDA-MB-435.
Assay [2] concerns 786-0 renal.
For assay [3], the system named is COLO 205 colon.
In assay [4] the test system is T-47D breast.
Assay [5] has as its system RXF 393 renal.
The test system of assay [6] is CCRF-CEM leukemia.
The test system of assay [7] is A498 renal.
The test system of assay [8] is OVCAR-5 ovarian.
Assay [9] relates to SF-539 CNS.
Assay [10] has as its system HOP-92 NSCLC.

Molecules are shown by their SMILES.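 Exposure lasted 48 hours, with cells grown in 96-well plates and compounds tested at five concentrations. GI50 = concentration required for 50% inhibition of growth. TGI denotes the concentration required for complete inhibition of growth.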 Some results are limits rather than exact numbers.

With `CC(=O)NC1CONC1=O` (stereo unspecified), the TGI in [1], in assay [2], in assay [3], in assay [4], in assay [5] and in assay [6] was over 100 µM each time. In addition, the TGI in assay [7], in [8], in assay [9] and in [10] was over 100 µM throughout.
Take `CNCCn1c(=O)c2cc(OC)c(OC)cc2c2cnc3cc4c(cc3c21)OCO4`: the GI50 was 0.0189 µM in assay [1]; under 0.01 µM in assay [2]; 0.0304 µM in assay [3]; under 0.01 µM in assay [4]; under 0.01 µM in [5]; under 0.01 µM in [6]. The GI50 in assay [7] was 0.0194 µM; in assay [8] it was 0.0259 µM; in assay [9], under 0.01 µM; in assay [10], under 0.0149 µM. The TGI in assay [1] worked out at 2.02 µM; in assay [2], 0.0168 µM; in assay [3], 2.06 µM; in assay [4], 1.48 µM; in [5], 0.0352 µM; in assay [6] it was 1.19 µM. Further, the TGI in assay [7] is 0.135 µM; in [8] it was 0.304 µM; in assay [9], 0.0103 µM; in assay [10] it was 0.518 µM.
For `Cn1cc(S(=O)(=O)N2CCC3=Cc4c(cnn4-c4ccc(F)cc4)C[C@]3(C(=O)c3cc(C(F)(F)F)ccn3)C2)cn1`, the GI50 in [1] was over 100 µM; in assay [2] it was over 100 µM; in assay [3] it was over 100 µM; in assay [4] it was 13.3 µM; in [5], 5.19 µM; in assay [6], over 100 µM. For the same molecule, the GI50 in assay [7] is 4.64 µM; in assay [8] it was over 100 µM; in [9] it was 95.8 µM; in assay [10], 6.57 µM. For the same molecule, the TGI in assay [1], in [2], in assay [3], in [4], in assay [5] and in assay [6] was over 100 µM in each case. The TGI in assay [7], in assay [8], in [9] and in assay [10] was over 100 µM in each case.
As for `CC(C)(C)c1cc(C(=O)/C=C/c2ccc(C(=O)O)cc2)cc(C(C)(C)C)c1`, the TGI in assay [1] was 6.66 µM; in [2], 13.9 µM; in assay [3], 4.73 µM; in assay [4], 19.8 µM; in assay [5] it was 4.34 µM; in assay [6], 9.48 µM. Further, the TGI in [7] turned out to be 3.52 µM; in [8], 17.2 µM; in [9] it was 2.97 µM; in [10] it was 19.7 µM.
Consider `NCCCOc1cc(Cl)ccc1NC(=O)c1cc2ccccc2cc1OCCCN`, for which the GI50 in assay [1] is 1.8 µM; in [2], 1.62 µM; in assay [3], 1.31 µM; in assay [4], 1.51 µM; in assay [5], 1.24 µM; in assay [6] it was 0.469 µM. The GI50 in assay [7] is 1.58 µM; in [8], 1.42 µM; in assay [9] it was 1.5 µM; in [10] it was 1.32 µM. The TGI amounted to 3.59 µM in assay [1]; 3.08 µM in assay [2]; 2.79 µM in assay [3]; 3.2 µM in assay [4]; 2.54 µM in assay [5]; 2.54 µM in assay [6]. Besides, the TGI in assay [7] is 3.08 µM; in [8], 3.01 µM; in assay [9], 2.95 µM; in assay [10], 2.85 µM.
`O=C(N/N=C/c1ccc(O)cc1O)c1cccnc1`: the GI50 in [1] was 7.52 µM; in assay [2], 4.28 µM; in assay [3], 2.8 µM; in [4], 3.45 µM; in assay [5] it was 3.74 µM; in assay [6] it was 0.971 µM. The GI50 is 11.5 µM in [7], 14 µM in [8], 2.64 µM in [9] and 2.09 µM in [10]. Further, the TGI was over 100 µM in assay [1]; over 100 µM in assay [2]; over 100 µM in [3]; 86 µM in [4]; over 100 µM in assay [5]; over 100 µM in [6]. The TGI in assay [7] is 84.1 µM; in assay [8] it was over 100 µM; in assay [9], 19.3 µM; in assay [10] it was 43.5 µM.
Regarding `Clc1nc(Cl)c2ncn(Cc3ccccc3Cn3cnc4c(Cl)nc(Cl)nc43)c2n1`, the GI50 in assay [1] was 2.31 µM; in [2], 4.47 µM; in [3], 2.89 µM; in assay [4] it was 1.73 µM; in assay [5] it was 1.36 µM; in assay [6], 1.42 µM. Also, the GI50 in [7] was 11.2 µM; in assay [8], 5.09 µM; in [9], 0.16 µM; in assay [10] it was 1.9 µM. Moreover, the TGI is 5.58 µM in assay [1]; 9.57 µM in [2]; over 26.3 µM in assay [3]; 4.71 µM in assay [4]; 3.29 µM in assay [5]; 3.14 µM in assay [6]. The TGI in assay [7] was found to be 27.7 µM; in assay [8], 10.4 µM; in assay [9], 0.719 µM; in assay [10] it was 4.16 µM.
Regarding `COc1cc(/C=C/C(=O)C(C(=O)/C=C/c2ccc(OC(=O)CCNC34CC5CC(CC(C5)C3)C4)c(OC)c2)C(=O)CCNC23CC4CC(CC(C4)C2)C3)ccc1OC(=O)CCNC12CC3CC(CC(C3)C1)C2` (stereo unspecified), the GI50 in [1] is 2.88 µM; in assay [2], 4.19 µM; in assay [3], 4.27 µM; in [4], 3.69 µM; in assay [5], 1.96 µM; in assay [6], 1.65 µM. Further, the GI50 is 3.47 µM in assay [7], 5.65 µM in assay [8], 2.27 µM in assay [9] and 4.75 µM in assay [10]. The TGI in assay [1] was 35.3 µM; in assay [2] it was over 100 µM; in assay [3], 17.8 µM; in [4] it was 28.9 µM; in assay [5] it was 5.17 µM; in assay [6], 4.12 µM. Besides, the TGI came to 13.6 µM in assay [7], 19.6 µM in assay [8], 5.01 µM in assay [9] and 31.4 µM in [10].
With `NCCCn1c2c(c3ccccc3c1=O)C(=O)c1ccccc1-2`, the GI50 is 0.7 µM in assay [1]; 0.119 µM in [2]; 0.105 µM in assay [3]; 0.162 µM in assay [4]; 1.22 µM in assay [5]; under 0.0462 µM in assay [6]. Besides, the GI50 in assay [7] is 0.0481 µM; in [8] it was 0.306 µM; in assay [9], 0.104 µM; in assay [10], 2.6 µM. Moreover, the TGI in [1] worked out at 3.07 µM; in assay [2], 1.01 µM; in assay [3] it was 2.88 µM; in [4], 0.951 µM; in [5] it was 6.68 µM; in [6], 0.375 µM. Moreover, the TGI in [7] was 0.919 µM; in [8] it was 2.94 µM; in assay [9] it was 1.13 µM; in assay [10], 19.1 µM.
Regarding `CNC(C)[C@H]1CCC2C3CC=C4C(=O)[C@@H](NC(=O)C=C(C)C)CC[C@]4(C)C3CC[C@@]21C` (stereo partly specified), the GI50 in assay [1] was 1.36 µM; in assay [2], 1.56 µM; in assay [3], 1.51 µM; in assay [4] it was 0.925 µM; in assay [5], 1.45 µM; in assay [6] it was 1.77 µM. In addition, the GI50 is 1.3 µM in assay [7], 2.53 µM in assay [8], 1.3 µM in [9] and 0.977 µM in [10]. Also, the TGI is 3.27 µM in [1]; 3.16 µM in assay [2]; 2.99 µM in [3]; 5.05 µM in [4]; 3.22 µM in assay [5]; 7.8 µM in assay [6]. Further, the TGI in assay [7] worked out at 8.26 µM; in [8] it was 10.9 µM; in assay [9] it was 2.64 µM; in [10] it was 10.3 µM.
As for `COc1cc(/C=C/C(=O)Oc2ccccc2)ccc1C(=O)O/C=C/c1ccccc1`, the TGI in assay [1], in assay [2], in assay [3], in assay [4], in assay [5] and in assay [6] was over 100 µM each time. In addition, the TGI is over 21.5 µM in [7], over 100 µM in assay [8], over 100 µM in assay [9] and over 100 µM in assay [10].
On to `C=C(C)[C@@H]1CC[C@]2(C)[C@H](CC[C@@H]3[C@@H]([C@@](C)(O)CCC=C(C)C)CC[C@]32C)[C@@]1(C)CCC(=O)O`, for which the GI50 in assay [1] is 17.9 µM; in [2] it was 18.7 µM; in assay [3], 17.7 µM; in [4] it was 21.5 µM; in [5], 14.3 µM; in [6], 18 µM. Also, the GI50 in assay [7] is 29.5 µM; in [8] it was 17.6 µM; in [9], 16 µM; in assay [10], 12.7 µM. Moreover, the TGI is 38.6 µM in assay [1]; 36.7 µM in assay [2]; 35.6 µM in [3]; over 100 µM in [4]; 28.6 µM in assay [5]; 48.2 µM in assay [6]. Further, the TGI is over 100 µM in [7], 34.2 µM in [8], 29.9 µM in [9] and 27.2 µM in assay [10].
`COc1cc2c3c(n(CCCN(C)CCO)c(=O)c2cc1OC)-c1cc2c(cc1C3=O)OCO2`: the GI50 was 16.6 µM in assay [1]; 2.92 µM in assay [2]; 12.6 µM in assay [3]; 10.8 µM in assay [4]; 27.4 µM in [5]; 8.19 µM in assay [7]. Besides, the GI50 was 51.7 µM in assay [8], 2.89 µM in [9] and 2.82 µM in assay [10]. The TGI in assay [1] is over 100 µM; in assay [2], over 100 µM; in [3], over 100 µM; in assay [4], over 100 µM; in assay [5], over 73.2 µM; in [6], 0.473 µM. For the same molecule, the TGI in assay [7] was over 40.2 µM; in assay [8], over 100 µM; in assay [9], over 33.5 µM; in [10] it was 35.1 µM.
For `Oc1ccc(N=Nc2nccs2)c(O)c1`, the GI50 was 4.77 µM in assay [1]; 3.61 µM in assay [2]; 3.21 µM in assay [3]; 4.87 µM in [4]; 5.65 µM in assay [5]; 2.48 µM in assay [6]. For the same molecule, the GI50 was 18.8 µM in [7], 7.84 µM in [8], 6.66 µM in assay [9] and 3.34 µM in [10]. Also, the TGI in [1] was 31 µM; in assay [2] it was 27.7 µM; in assay [3], 12 µM; in assay [4], 40.1 µM; in assay [5], 30.1 µM; in [6], 8.99 µM. The TGI is 40.5 µM in [7], 29.4 µM in assay [8], 28.9 µM in [9] and 24.7 µM in assay [10].
Consider `C=CCn1c(SCC(=O)Nc2ccc(C(=O)/C=C/c3cc(OC)c(OC)c(OC)c3)cc2)nnc1-c1ccc(OC)cc1`, for which the GI50 in assay [1] was 0.327 µM; in [2] it was 0.583 µM; in assay [3] it was 0.399 µM; in assay [4] it was 0.455 µM; in [5], 0.377 µM; in [6], 0.344 µM. Besides, the GI50 is 1.5 µM in assay [7], 0.248 µM in assay [9] and 2.25 µM in [10]. Moreover, the TGI in assay [1] was 1.6 µM; in assay [2], 2.61 µM; in assay [3], 3.83 µM; in assay [4], 5.73 µM; in assay [5] it was 1.41 µM; in assay [6], over 100 µM. For the same molecule, the TGI in [7] was found to be 2.91 µM; in [9], 0.666 µM; in [10] it was 16.4 µM.
For `c1ccc(NCCSc2nc3ccccc3s2)cc1`, the TGI in assay [1] is over 100 µM; in assay [2], over 100 µM; in [3] it was 41.8 µM; in [4] it was over 100 µM; in assay [5], over 100 µM; in [6] it was 31.7 µM. For the same molecule, the TGI in [7], in assay [8] and in [10] was over 100 µM in each case.
